The text below walks through data of patent publication US20200255478A1, “NOVEL COMPOUNDS ACTIVATING THE NRF2 PATHWAY” (Almirall, S.A., priority 2017, published 2020).

Starred links: 1 amine or outer side, 2 acyl side, 3 side chain; linkers in the order of their positions; H or OH if unused. Positions of bridges follow the written chain, without caps; N, C: chain ends. Non-standard residues stand in square brackets, D forms with d. Residues, ends and D or L forms follow the SMILES beside them. *: point of attachment. Trp(2-yl) = O=C([C@H](Cc1c([*:3])[nH]c2ccccc12)N[*:1])[*:2]; X8 = O=C([C@H](Cc1cccc([*:3])c1)N[*:1])[*:2]; mXylylene = c1cc(C[*:1])cc(C[*:2])c1; oXylylene = c1ccc(C[*:2])c(C[*:1])c1; X2 = c1ccc2cc(C[*:2])c(C[*:1])cc2c1; Stearoyl = CCCCCCCCCCCCCCCCCC(=O)*; βAla = NCCC(=O)O

Sequence of Keap1-Maltose Binding Protein (MBP tag) (Q14145 whole entry): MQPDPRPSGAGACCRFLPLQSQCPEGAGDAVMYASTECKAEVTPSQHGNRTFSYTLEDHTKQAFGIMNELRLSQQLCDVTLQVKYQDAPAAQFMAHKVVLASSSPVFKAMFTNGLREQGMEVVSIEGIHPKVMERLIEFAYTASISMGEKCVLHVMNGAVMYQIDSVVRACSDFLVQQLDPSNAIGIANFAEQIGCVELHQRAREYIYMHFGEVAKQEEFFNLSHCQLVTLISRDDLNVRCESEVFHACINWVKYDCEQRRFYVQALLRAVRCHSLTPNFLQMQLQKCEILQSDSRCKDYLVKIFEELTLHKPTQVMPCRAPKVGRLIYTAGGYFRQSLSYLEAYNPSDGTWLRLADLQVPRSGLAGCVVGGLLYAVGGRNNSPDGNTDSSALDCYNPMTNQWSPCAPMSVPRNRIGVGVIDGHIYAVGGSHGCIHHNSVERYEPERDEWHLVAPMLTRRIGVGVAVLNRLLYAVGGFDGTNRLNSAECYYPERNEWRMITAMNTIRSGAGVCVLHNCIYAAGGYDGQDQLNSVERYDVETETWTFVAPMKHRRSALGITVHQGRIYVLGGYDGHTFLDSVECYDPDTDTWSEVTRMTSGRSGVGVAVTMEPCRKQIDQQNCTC

The first experiment addresses Keap1-Maltose Binding Protein (MBP tag) (Homo sapiens, UniProt Q14145). The experiment in a line: Nrf2-Keap1 HTRF (TR-FRET) binding assay: displacement of biotinylated ETGE peptide from Keap1-MBP.
Conditions: not given
Take `CCCCCCCC/C=C\CCCCCCCC(=O)N[C@H]1C[C@H]2C(=O)N[C@@H](CCC(N)=O)C(=O)N[C@H]3CSCc4ccccc4CSC[C@H](NC(=O)[C@H](CCC(=O)O)NC(=O)CNC(=O)[C@H]([C@@H](C)O)NC(=O)[C@H](CCC(=O)O)NC(=O)[C@@H]4CCCN4C(=O)[C@H](CC(=O)O)NC3=O)C(=O)N[C@@H](CC(C)C)C(=O)N3CCC[C@@H]3C(=O)N2C1` [Example 88, {[&^1Pro((4S)-NH-oleyl)-Gln-Cys(&^2)-Asp-Pro-Glu-Thr-Gly-Glu-Cys(&^3)-Leu-D-Pro&^1][&^2(1,2-phenylenediyl)dimethylene&^3]}]: the IC50 was < 1 nM.
As to `CC/C=C\C/C=C\C/C=C\CCCCCCCC(=O)N[C@H]1C[C@H]2C(=O)N[C@@H](CCC(N)=O)C(=O)N[C@H]3CSCc4ccccc4CSC[C@H](NC(=O)[C@H](CCC(=O)O)NC(=O)CNC(=O)[C@H]([C@@H](C)O)NC(=O)[C@H](CCC(=O)O)NC(=O)[C@@H]4CCCN4C(=O)[C@H](CC(=O)O)NC3=O)C(=O)N[C@@H](CC(C)C)C(=O)N3CCC[C@@H]3C(=O)N2C1` [Example 86, {[&^1Pro((4S)-NH-α-linolenyl)-Gln-Cys(&^2)-Asp-Pro-Glu-Thr-Gly-Glu-Cys(&^3)-Leu-D-Pro&^1][&^2(1,2-phenylenediyl)dimethylene&^3]}], the IC50 is < 1 nM.
Same read-out and setting: as for `CC(C)C[C@@H]1NC(=O)[C@@H]2CCCN2C(=O)[C@H](CC(C)C)NC(=O)[C@@H]2CSc3[nH]c4ccccc4c3C[C@H](NC(=O)[C@H](CCC(N)=O)NC1=O)C(=O)N[C@@H](CC(=O)O)C(=O)N[C@@H](CCC(=O)O)C(=O)N[C@@H](CCC(=O)O)C(=O)N[C@@H]([C@@H](C)O)C(=O)NCC(=O)N[C@@H](CCC(=O)O)C(=O)N2` [Example 11, &^1Leu-Gln-Trp(indol-2-yl-&^2)-Asp-Glu-Glu-Thr-Gly-Glu-Cys(&^2)-Leu-Pro&^1] (cyclo(CLPLQ[Trp(2-yl)]DEETGE); thioether 1-6), the figure is 1 to 100 nM.

Still in this experiment, the particulars now being: HTRF (TR-FRET); displacement of ETGE-biotin from Keap1-MBP; values banded into grades; read-out: Binding (IC50) ETGE-Keap1.
As to `CC(C)C[C@H](NC(=O)[C@@H]1CSCc2ccccc2CSC[C@H](NC(=O)[C@H](CCC(N)=O)NC(=O)[C@@H](N)CC(C)C)C(=O)N[C@@H](CC(=O)O)C(=O)N[C@@H](C)C(=O)N[C@@H](CCC(=O)O)C(=O)N[C@@H]([C@@H](C)O)C(=O)NCC(=O)N[C@@H](CCC(=O)O)C(=O)N1)C(=O)N1CCC[C@H]1C(=O)O` [Example 19, {[H-Leu-Gln-Cys(&^1)-Asp-Ala-Glu-Thr-Gly-Glu-Cys(&^2)-Leu-Pro-OH][&^1(1,2-phenylenediyl)dimethylene&^2]}] (H-LQCDAETGECLP-OH; linker 3-10 via oXylylene), the IC50 was in the range of 1 to 100 nM.
For `CCCCCCCCCCCCCCCCCC(=O)NCCC(=O)N[C@@H](CC(C)C)C(=O)N[C@@H](CCC(N)=O)C(=O)N[C@H]1CSCc2cccc(c2)CSC[C@@H](C(=O)N[C@@H](CC(C)C)C(=O)N2CCC[C@H]2C(=O)O)NC(=O)[C@H](CCC(=O)O)NC(=O)CNC(=O)[C@H]([C@@H](C)O)NC(=O)[C@H](CCC(=O)O)NC(=O)[C@@H]2CCCN2C(=O)[C@H](CC(=O)O)NC1=O` [Example 37, {[Stearyl-βA1a-Leu-Gln-Cys(&^1)-Asp-Pro-Glu-Thr-Gly-Glu-Cys(&^2)-Leu-Pro-OH][&^1(1,3-phenylenediyl)dimethylene&^2]}] ({Stearoyl-βAla}-LQCDPETGECLP-OH; linker 3-10 via mXylylene), the IC50 lay in the range of 1 to 100 nM.
Regarding `CCCCCCCCCCCCCCCCCC(=O)NCCC(=O)N[C@@H](CC(C)C)C(=O)N[C@@H](CCC(N)=O)C(=O)N[C@H]1CSCc2ccccc2CSC[C@@H](C(=O)N[C@@H](CC(C)C)C(=O)N2CCC[C@H]2C(N)=O)NC(=O)[C@H](CCC(=O)O)NC(=O)CNC(=O)[C@H]([C@@H](C)O)NC(=O)[C@H](CCC(=O)O)NC(=O)[C@@H]2CCCN2C(=O)[C@H](CC(=O)O)NC1=O` [Example 48, {[Stearyl-βAla-Leu-Gln-Cys(&^1)-Asp-Pro-Glu-Thr-Gly-Glu-Cys(&^2)-Leu-Pro-NH2][&^1(1,2-phenylenediyl)dimethylene&^2]}] ({Stearoyl-βAla}-LQCDPETGECLP-NH2; linker 3-10 via oXylylene), the IC50 was 1 to 100 nM.
As for `CC(C)C[C@H](NC(=O)[C@@H]1CSCc2cccc(c2)CSC[C@H](NC(=O)[C@H](CCC(N)=O)NC(=O)[C@@H](N)CC(C)C)C(=O)N[C@@H](CC(=O)O)C(=O)N[C@@H](C)C(=O)N[C@@H](CCC(=O)O)C(=O)N[C@@H]([C@@H](C)O)C(=O)NCC(=O)N[C@@H](CCC(=O)O)C(=O)N1)C(=O)N1CCC[C@H]1C(=O)NCCC(=O)N[C@@H](CCCNC(=N)N)C(=O)N[C@@H](CCCCN)C(=O)N[C@@H](CCCCN)C(=O)N[C@@H](CCCNC(=N)N)C(=O)N[C@@H](CCCNC(=N)N)C(=O)N[C@@H](CCC(N)=O)C(=O)N[C@@H](CCCNC(=N)N)C(=O)N[C@@H](CCCNC(=N)N)C(=O)N[C@@H](CCCNC(=N)N)C(N)=O` [Example 16], the IC50 is < 1 nM.
On the same count and under the same terms, as for `CC(C)C[C@H](NC(=O)[C@@H]1CSCc2cccc(c2)CSC[C@H](NC(=O)[C@H](CCC(N)=O)NC(=O)[C@@H](N)CC(C)C)C(=O)N[C@@H](CC(=O)O)C(=O)N[C@@H](CCC(=O)O)C(=O)N[C@@H](CCC(=O)O)C(=O)N[C@@H]([C@@H](C)O)C(=O)NCC(=O)N[C@@H](CCC(=O)O)C(=O)N1)C(=O)N1CCC[C@H]1C(=O)O` [Example 3, {[H-Leu-Gln-Cys(&^1)-Asp-Glu-Glu-Thr-Gly-Glu-Cys(&^2)-Leu-Pro-OH][&^1(1,3-phenylenediyl)dimethylene&^2]}] (H-LQCDEETGECLP-OH; linker 3-10 via mXylylene), the figure is 1 to 100 nM; as for `CC(C)C[C@H](NC(=O)[C@@H]1CSCc2cc3ccccc3cc2CSC[C@H](NC(=O)[C@H](CCC(N)=O)NC(=O)[C@@H](N)CC(C)C)C(=O)N[C@@H](CC(=O)O)C(=O)N2CCC[C@H]2C(=O)N[C@@H](CCC(=O)O)C(=O)N[C@@H]([C@@H](C)O)C(=O)NCC(=O)N[C@@H](CCC(=O)O)C(=O)N1)C(=O)N1CCC[C@H]1C(=O)NCCC(=O)N[C@@H](CCCNC(=N)N)C(=O)N[C@@H](CCCNC(=N)N)C(=O)N[C@@H](CCCNC(=N)N)C(=O)N[C@@H](CCCNC(=N)N)C(=O)N[C@@H](CCCNC(=N)N)C(=O)N[C@@H](CCCNC(=N)N)C(=O)N[C@@H](CCCNC(=N)N)C(=O)N[C@@H](CCCNC(=N)N)C(N)=O` [Example 68, {[H-Leu-G1n-Cys(&^1)-Asp-Pro-Glu-Thr-G1y-Glu-Cys(&^2)-Leu-Pro-βAla-Arg8-NH2][&^1(naphthalene)2,3-diyldimethylene&^2]}], 1 to 100 nM.
The same measure, in the same setting: as for `Cc1cc(C)c2c(C)c1CSC[C@@H](C(=O)N[C@@H](CC(C)C)C(=O)N1CCC[C@H]1C(=O)NCCC(=O)N[C@@H](CCCNC(=N)N)C(=O)N[C@@H](CCCCN)C(=O)N[C@@H](CCCCN)C(=O)N[C@@H](CCCNC(=N)N)C(=O)N[C@@H](CCCNC(=N)N)C(=O)N[C@@H](CCC(N)=O)C(=O)N[C@@H](CCCNC(=N)N)C(=O)N[C@@H](CCCNC(=N)N)C(=O)N[C@@H](CCCNC(=N)N)C(N)=O)NC(=O)[C@H](CCC(=O)O)NC(=O)CNC(=O)[C@H]([C@@H](C)O)NC(=O)[C@H](CCC(=O)O)NC(=O)[C@@H]1CCCN1C(=O)[C@H](CC(=O)O)NC(=O)[C@@H](NC(=O)[C@H](CCC(N)=O)NC(=O)[C@@H](N)CC(C)C)CSC2` [Example 67], the figure is 1 to 100 nM; as for `CC(C)C[C@H](NC(=O)[C@@H]1CSc2[nH]c3ccccc3c2C[C@H](NC(=O)[C@H](CCC(N)=O)NC(=O)[C@@H](N)CC(C)C)C(=O)N[C@@H](CC(=O)O)C(=O)N[C@@H](CCC(=O)O)C(=O)N[C@@H](CCC(=O)O)C(=O)N[C@@H]([C@@H](C)O)C(=O)NCC(=O)N[C@@H](CCC(=O)O)C(=O)N1)C(=O)N1CCC[C@H]1C(=O)NCCC(=O)N[C@@H](CCCNC(=N)N)C(=O)N[C@@H](CCCCN)C(=O)N[C@@H](CCCCN)C(=O)N[C@@H](CCCNC(=N)N)C(=O)N[C@@H](CCCNC(=N)N)C(=O)N[C@@H](CCC(N)=O)C(=O)N[C@@H](CCCNC(=N)N)C(=O)N[C@@H](CCCNC(=N)N)C(=O)N[C@@H](CCCNC(=N)N)C(N)=O` [Example 8], 1 to 100 nM.
Consider `CCCCCCCCCCCCCCCCCC(=O)NCCC(=O)N[C@@H](CCCCN)C(=O)N[C@@H](CCCCN)C(=O)N[C@H]1CSCc2ccccc2CSC[C@@H](C(=O)N[C@@H](CC(C)C)C(=O)N2CCC[C@H]2C(N)=O)NC(=O)[C@H](CCC(=O)O)NC(=O)CNC(=O)[C@H]([C@@H](C)O)NC(=O)[C@H](CCC(=O)O)NC(=O)[C@@H]2CCCN2C(=O)[C@H](CC(=O)O)NC1=O` [Example 57, {[Stearyl-βAla-Lys-Lys-Cys(&^1)-Asp-Pro-Glu-Thr-Gly-Glu-Cys(&^2)-Leu-Pro-NH2][&^1(1,2-phenylenediyl)dimethylene&^2]}] ({Stearoyl-βAla}-KKCDPETGECLP-NH2; linker 3-10 via oXylylene), for which the IC50 is < 1 nM.
For `CC(=O)N[C@H]1CSCc2cc3ccccc3cc2CSC[C@@H](C(N)=O)NC(=O)[C@H](CCC(=O)O)NC(=O)CNC(=O)[C@H]([C@@H](C)O)NC(=O)[C@H](CCC(=O)O)NC(=O)[C@H](CCC(=O)O)NC(=O)[C@H](CC(=O)O)NC1=O` [Example 27, {[Acetyl-Cys(&^1)-Asp-Glu-Glu-Thr-Gly-Glu-Cys(&^2)-NH2][&^1(naphthalene)2,3-diyldimethylene&^2]}] (Ac-CDEETGEC-NH2; linker 1-8 via X2), the IC50 was 1 to 100 nM.
In the case of `CC(C)C[C@H](NC(=O)[C@@H]1CSCc2cccc(c2)CSC[C@H](NC(=O)[C@H](CCC(N)=O)NC(=O)[C@@H](N)CC(C)C)C(=O)N[C@@H](CC(=O)O)C(=O)N[C@@H](C)C(=O)N[C@@H](CCC(=O)O)C(=O)N[C@@H]([C@@H](C)O)C(=O)NCC(=O)N[C@@H](CCC(=O)O)C(=O)N1)C(=O)N1CCC[C@H]1C(=O)O` [Example 14, {[H-Leu-Gln-Cys(&^1)-Asp-Ala-Glu-Thr-Gly-Glu-Cys(&^2)-Leu-Pro-OH][&^1(1,3-phenylenediyl)dimethylene&^2]}] (H-LQCDAETGECLP-OH; linker 3-10 via mXylylene), the IC50 is < 1 nM.
Take `CC(=O)N[C@H]1Cc2cccc(c2)SC[C@@H](C(N)=O)NC(=O)[C@H](CCC(=O)O)NC(=O)CNC(=O)[C@H]([C@@H](C)O)NC(=O)[C@H](CCC(=O)O)NC(=O)[C@H](CCC(=O)O)NC(=O)[C@H](CC(=O)O)NC1=O` [Example 22, Acetyl-Phe(m-&^1)-Asp-Glu-Glu-Thr-Gly-Glu-Cys(&^1)-NH2] (Ac-[X8]DEETGEC-NH2; thioether 1-8): the IC50 is 1 to 100 nM.
